In patent US4528194A, “2-(4-Diphenylmethylpiperazinyl)-1-phenyl alkanol or their salts, a process for their production and a cerebral circulation-improving drug” (Nippon Chemiphar Co., Ltd., priority 1982, dated 1985):
Where a name gives a salt, the structure may show the parent alone. Read-outs that look alike come from different tables or passages of the source.

Columns and labels:
[1] = test system: vertebral blood flow and femoral blood flow; assay: Test 1: Peripheral Vasodilating Effect; format: in vivo, Mongrel dogs; conditions: 1 mg/kg i.v.; for Percentage of vertebral blood flow increase / Percentage of vertebral blood flow increase against percentage of femoral blood flow increase: anesthetized dogs, 5% aqueous tartaric acid solution, except compounds footnoted: (1) dimethylsulfoxide, (2) distilled water, (3) physiological saline
Procedure: Mongrel dogs of both sexes each weighing about 10 kg were anesthetized with sodium pentobarbital (35 mg/kg, i.v.). Artificial respiration was performed with room air. The vertebral blood flow and femoral blood flow were measured by an electromagnetic flowmeter (Nihon Koden, MF-27) with flow probes. The blood pressure and heart rate were measured at the same time. For intravenous administration of each compound (1 mg/kg), the cephalic vein was cannulated and the compound solution injected.

[2] = test system: platelets (ADP-induced coagulation); assay: Test 2: Platelet Anti-coagulating Effect, ADP-induced coagulation; format: in vivo, Male Wistar rats; conditions: Rattus norvegicus, 250 mg/kg oral, rats, 3 hours after administration, ADP 2.7 uM, read-out: Inhibition percentage, ADP (2.7 uM)
Procedure: (§1) Male Wistar rats each having a body weight of about 300 g were orally administered with the test compounds. With the lapse of 3 hours after administration of the compound, each rate was anesthetized with ether, and the blood was collected from its abdominal vein. […] The blood was centrifuged at 1,000 rpm for 10 minutes. The resultant platelet-rich plasma (PRP) was centrifuged for further 10 minutes at 3,000 rpm, thereby collecting a platelet-poor plasma (PPP).
(§2) ADP or collagen was added to the PRP obtained above to induce coagulation, and the thus coagulated platelets were measured by turbidimetry using a platelet aggregation tracer ("PAT-4A", tradename of Niko Kizai Kabushiki Kaisha, Japan). The coagulation inhibition percentage was determined by the following equation: [formula] A: Maximum percentage of coagulation when a compound was administered B: Maximum percentage of coagulation when physiological saline was administered

[3] = test system: platelets (collagen-induced coagulation); assay: Test 2: Platelet Anti-coagulating Effect, collagen-induced coagulation; format: in vivo, Male Wistar rats; conditions: Rattus norvegicus; for inhibition at 250 mg/kg: 250 mg/kg oral, collagen 17.4 ug/ml, read-out: Inhibition percentage, Collagen (17.4 ug/ml)
Procedure: as §1, §2

[4] = Test 3: Acute Toxicity, oral, mice; conditions: mouse, in vivo, 7 days observation
Procedure: (§3) Certain test compounds of the invention were administered orally to SD-strain female or male rats each having a body weight of 150 to 200 g of ddN-strain male mice each having a body weight of about 20 g.

[5] = Test 3: Acute Toxicity, oral, rats; conditions: rat, in vivo, 7 days observation
Procedure: as §3

[6] = rats, 3 hours after administration
[7] = footnote * of Table 1, dogs, in dimethylsulfoxide
[8] = 200 mg/kg oral, rats, 3 hours after administration, collagen 6.25 ug/ml, read-out: Inhibition percentage, Collagen (6.25 ug/ml)

| Structure (SMILES) | Percentage of vertebral blood flow increase [1] [%] | Percentage of vertebral blood flow increase against percentage of femoral blood flow increase [1] | LD50 at 168 h [4] [mg/kg] | further results |
| --- | --- | --- | --- | --- |
| CN(C)CCCOC1(Cc2ccccc2)CCCCCC1 [compound 4, Bencyclane fumarate, reference compound] | 67 | 2.9 | – | inhibition at 250 mg/kg [2]: 0%; inhibition at 250 mg/kg [3, 6]: 0% |
| C[C@@H]([C@@H](O)c1ccc(O)cc1)N1CCN(C(c2ccccc2)c2ccccc2)CC1 (relative stereo) [Inventive compound 3, dl-threo-2-(4-Diphenylmethylpiperazinyl)-1-(4-hydroxyphenyl)propanol.tartrate] | 60 | 3.2 | – | – |
| C=CCOc1ccc(C(O)CN2CCN(C(c3ccccc3)c3ccccc3)CC2)cc1 (stereo not shown) [Inventive compound 11, 1-(4-Allyloxyphenyl)-2-(4-diphenylmethylpiperazinyl)ethanol.monohydrochloride] | 93 | 2.0 | > 2000 | – |
| OC(CN1CCN(C(c2ccccc2)c2ccccc2)CC1)c1ccc(OCc2ccccc2)cc1OCc1ccccc1 (stereo not shown) [Inventive compound 5, 1-(2,4-Dibenzyloxyphenyl)-2-(4-diphenylmethylpiperazinyl)ethanol.monohydrochloride] | 62 | 15.3 | > 2000 | blood flow increase, course [1, 7]: increased in two phases; increased blood flow lasted for [1, 7]: 30 min |
| C=CCOc1cc(OC)ccc1C(O)CN1CCN(C(c2ccccc2)c2ccccc2)CC1 (stereo not shown) [Inventive compound 12, 1-(2-Allyloxy-4-methoxyphenyl)-2-(4-diphenylmethylpiperazinyl)ethanol.dihydrochloride] | 123 | 7.7 | – | – |
| Oc1ccc(C(O)CN2CCN(C(c3ccccc3)c3ccccc3)CC2)cc1 (stereo not shown) [Inventive compound 1, 2-(4-Diphenylmethylpiperazinyl)-1-(4-hydroxyphenyl)ethanol.monohydrochloride] | 76 | 3.6 | – | inhibition at 250 mg/kg [2]: 28%; inhibition at 200 mg/kg [3, 8]: 81%; inhibition at 250 mg/kg [3, 6]: 25%; LD50 at 168 h [5]: > 2000 mg/kg |
| OC(CN1CCN(C(c2ccccc2)c2ccccc2)CC1)c1ccc(OCc2ccccc2)cc1 (stereo not shown) [Inventive compound 4, 1-(4-Benzyloxyphenyl)-2-(4-diphenylmethylpiperazinyl)ethanol.monohydrochloride] | 90 | 5.8 | > 2000 | – |
| C(=C\c1ccccc1)/CN1CCN(C(c2ccccc2)c2ccccc2)CC1 [compound 5, Cinnarizine, reference compound] | 60 | 2.5 | – | – |
| CC(=O)Oc1ccccc1C(=O)O [Aspirin, reference compound] | – | – | – | inhibition at 200 mg/kg ([3]; read-out: inhibition against collagen): 99% |
| COc1ccc(C(O)CN2CCN(C(c3ccccc3)c3ccccc3)CC2)cc1OC (stereo not shown) [Inventive compound 8, 1-(3,4-Dimethoxyphenyl)-2-(4-diphenylmethylpiperazinyl)ethanol.dihydrochloride] | 84 | 15.3 | 470 | – |
| COc1ccc(C(O)CN2CCN(C(c3ccccc3)c3ccccc3)CC2)c(OC)c1 (stereo not shown) [Inventive compound 7, 1-(2,4-Dimethoxyphenyl)-2-(4-diphenylmethylpiperazinyl)ethanol.dihydrochloride] | 123 | 5.8 | 350 | – |
| Oc1ccccc1C(O)CN1CCN(C(c2ccccc2)c2ccccc2)CC1 (stereo not shown) [compound 1, 2-(4-Diphenylmethylpiperazinyl)-1-(2-hydroxyphenyl)ethanol.monohydrochloride, reference compound] | 26 | 1.2 | – | – |
| C[C@@H]([C@@H](O)c1ccc(OCc2ccccc2)cc1)N1CCN(C(c2ccccc2)c2ccccc2)CC1 (relative stereo) [Inventive compound 6, dl-threo-1-(4-Benzyloxyphenyl)-2-(4-diphenylmethylpiperazinyl)propanol.dihydrochloride] | 96 | 8.5 | – | – |
| COc1cc(C(O)CN2CCN(C(c3ccccc3)c3ccccc3)CC2)cc(OC)c1OC (stereo not shown) [Inventive compound 10, 2-(4-Diphenylmethylpiperazinyl)-1-(3,4,5-trimethoxyphenyl)ethanol.monohydrochloride] | 95 | 4.6 | > 2000 | – |
| OC(CN1CCN(C(c2ccccc2)c2ccccc2)CC1)c1ccccc1 (stereo not shown) [compound 2, 2-(4-Diphenylmethylpiperazinyl)-1-phenylethanol.dihydrochloride, reference compound] | 25 | 1.3 | – | – |
| CC(O)(CN1CCN(C(c2ccccc2)c2ccccc2)CC1)c1ccccc1 (stereo not shown) [compound 3, 2-(4-Diphenylmethylpiperazinyl)-1-methyl-1-phenylethanol.dihydrochloride, reference compound] | 20 | 1.1 | – | – |
| COc1ccc(C(O)CN2CCN(C(c3ccccc3)c3ccccc3)CC2)c(OC)c1OC (stereo not shown) [Inventive compound 9, 2-(4-Diphenylmethylpiperazinyl)-1-(2,3,4-trimethoxyphenyl)ethanol.dihydrochloride] | 124 | 6.1 | 1230 | inhibition at 200 mg/kg [3, 8]: 90% |
| C[C@@H]([C@H](O)c1ccc(O)cc1)N1CCN(C(c2ccccc2)c2ccccc2)CC1 (relative stereo) [Inventive compound 2, dl-erythro-2-(4-Diphenylmethylpiperazinyl)-1-(4-hydroxyphenyl)propanol.1/2tartrate] | 66 | 3.5 | – | inhibition at 250 mg/kg [2]: 16%; inhibition at 200 mg/kg [3, 8]: 40%; inhibition at 250 mg/kg [3, 6]: 17%; LD50 at 168 h [5]: > 2000 mg/kg |
